Assay results published in patent US20240114940A1, “SACCHARIDE COMPOSITIONS HAVING SUCROSE-LIKE CHARACTERISTICS AND RELATED METHODS” (priority 2021, published 2024).

Assays:
Assay type in all cases: physicochemical
[1] = Breakdown products by GCMS after Maillard reaction in the presence of Histidine; details: 160° C.; for 2-Butanone concentration / 2-Propanone, 1-hydroxy- concentration / Diacetyl (2,3-Butanedione) concentration: Carbonyls/ketones; for Furan, 2-methyl- concentration / Furfural concentration: Furans; for Pyrazine, 2,5-diethyl- concentration / Pyrazine, 2,5-dimethyl- concentration / Pyrazine, 2-ethyl-5-methyl- concentration / Pyrazine, ethyl- concentration / Pyrazine, methyl- concentration: Pyrazines
Procedure: (§1) Controls were prepared addition of 1 mL of pH 7 buffer to the amino acids. The samples were rapidly heated to 160° C. and held at this temperature for 10 min. Samples were rapidly cooled afterwards, and absorbance at 500 nm was measured for each reaction mixture. Volatiles were analysed using gas chromatography mass spectrometry (GCMS) analysis. An Agilent Technologies 5975B Inert XL MSD gas chromatography, single quadruple mass spectrometer was used for analysis of volatiles. Samples were added to separate GCMS headspace vials and weighed. 0.03 g of 0.01% 3-heptanone in water was added and the vial was sealed for GCMS solid phase micro extraction (SPME) analysis. Samples were analysed in a randomized order. Samples were incubated and agitated at 250 RPM, at 60° C. for 15 min prior to SPME analysis of volatiles. The SPME fibre (50/30 DVB/CAR/PDMS, 23 Ga) extracted for 10 min, then thermally desorbed at 250° C. for 5 min. A 30 m×0.25 mm×0.25 μm HP-5MS column was used (Phenomenex, UK). Oven temperature settings: 31° C.-5 min, 5° C./min to 150° C., 30° C./min to 240° C. Inlet settings: 250° C., pressure 10.4 psi, flow 11.2 mL/min, split ratio 7:1. MS operated in full scan mode from 40 to 400 m/z with a scan time of 0.2s. The peak area of the aroma compounds was compared to the peak of the internal standard 3-heptanone and corrected for the weight of the sample.
(§2) The concentration of the different classes of Maillard reaction breakdown products is presented in Tables 9B-E. The same data as Tables 9B-E is also presented in FIG. 27. Concentrations are in parts per billion of the difference non-enzymatic breakdown products for the different compositions at 160° C. analysed by GCMS.

[2] = Breakdown products by GCMS after Maillard reaction in the presence of Leucine; details: Maillard reaction in the presence of Leucine, 160° C., GCMS; for 2-Butanone concentration / 2-Propanone, 1-hydroxy- concentration / Diacetyl (2,3-Butanedione) concentration: Carbonyls/ketones; for Furan, 2-methyl- concentration / Furfural concentration: Furans; for Pyrazine, 2,5-diethyl- concentration / Pyrazine, 2,5-dimethyl- concentration / Pyrazine, 2-ethyl-5-methyl- concentration / Pyrazine, ethyl- concentration / Pyrazine, methyl- concentration: Pyrazines; for Isovaleraldehyde (Butanal, 3-methyl-) concentration: Strecker aldehydes
Procedure: as §1, §2

[3] = Breakdown products by GCMS after Maillard reaction in the presence of Tryptophan; details: with Tryptophan, pH 7, 160° C., 10 min
Procedure: as §1, §2

[4] = Breakdown products by GCMS without an amino acid present; details: pH 7, 160° C., 10 min
Procedure: as §1, §2

SMILES	2-Butanone concentration [1] [ppb]	2-Propanone, 1-hydroxy- concentration [1] [ppb]	Diacetyl (2,3-Butanedione) concentration [1] [ppb]	Furan, 2-methyl- concentration [1] [ppb]	Furfural concentration [1] [ppb]	Pyrazine, 2,5-diethyl- concentration [1] [ppb]	Pyrazine, 2,5-dimethyl- concentration [1] [ppb]	Pyrazine, 2-ethyl-5-methyl- concentration [1] [ppb]	Pyrazine, ethyl- concentration [1] [ppb]	Pyrazine, methyl- concentration [1] [ppb]	2-Butanone concentration [2] [ppb]	2-Propanone, 1-hydroxy- concentration [2] [ppb]	Diacetyl (2,3-Butanedione) concentration [2] [ppb]	Furan, 2-methyl- concentration [2] [ppb]	Furfural concentration [2] [ppb]	Pyrazine, 2,5-diethyl- concentration [2] [ppb]	Pyrazine, 2,5-dimethyl- concentration [2] [ppb]	Pyrazine, 2-ethyl-5-methyl- concentration [2] [ppb]	Pyrazine, ethyl- concentration [2] [ppb]	Pyrazine, methyl- concentration [2] [ppb]	other results
N[C@@H](Cc1c[nH]cn1)C(=O)O [Histidine]	1.25	0	2.2	0	0.02	0	0	0.38	0	0	–	–	–	–	–	–	–	–	–	–	–
CC(C)C[C@H](N)C(=O)O [Leucine]	–	–	–	–	–	–	–	–	–	–	2.04	0.23	3.75	0	0.03	0	0	1	0	0	Isovaleraldehyde (Butanal, 3-methyl-) concentration [2]: 1.56 ppb
N[C@@H](Cc1c[nH]c2ccccc12)C(=O)O [Tryptophan]	–	–	–	–	–	–	–	–	–	–	–	–	–	–	–	–	–	–	–	–	Concentration of 2-Butanone [3]: 0.56 ppb; Concentration of 2-Propanone, 1-hydroxy- [3]: 0.05 ppb; Concentration of Diacetyl (2,3-Butanedione) [3]: 2.08 ppb; Concentration of Furan, 2-methyl- [3]: 0 ppb; Concentration of Furan, 2-pentyl- [3]: 0.03 ppb; Concentration of Furfural [3]: 0.02 ppb; Concentration of Indole [3]: 8.55 ppb; Concentration of Pyrazine, 2,5-diethyl- [3]: 0 ppb; Concentration of Pyrazine, 2,5-dimethyl- [3]: 0 ppb; Concentration of Pyrazine, 2-ethyl-5-methyl- [3]: 0.26 ppb; Concentration of Pyrazine, ethyl- [3]: 0 ppb; Concentration of Pyrazine, methyl- [3]: 0 ppb
O=C[C@H](O)[C@@H](O)[C@H](O)CO [Xylose]	53.5	196.75	32.61	28.4	15.26	17.88	587.06	288.64	4.48	5.22	212.85	647.73	458.75	170.12	118.44	84.11	2510.13	1146.75	59.9	496.33	Concentration of 2-Butanone [3]: 70.81 ppb; Concentration of 2-Propanone, 1-hydroxy- [3]: 227.11 ppb; Concentration of Diacetyl (2,3-Butanedione) [3]: 55.57 ppb; Concentration of Furan, 2-methyl- [3]: 52.32 ppb; Concentration of Furan, 2-pentyl- [3]: 6.28 ppb; Concentration of Furfural [3]: 0.15 ppb; Concentration of Indole [3]: 53.49 ppb; Concentration of Pyrazine, 2,5-diethyl- [3]: 25 ppb; Concentration of Pyrazine, 2,5-dimethyl- [3]: 751.39 ppb; Concentration of Pyrazine, 2-ethyl-5-methyl- [3]: 394.72 ppb; Concentration of Pyrazine, ethyl- [3]: 13.61 ppb; Concentration of Pyrazine, methyl- [3]: 59.72 ppb; Concentration of 2-Butanone [4]: 75.3 ppb; Concentration of 2-Propanone, 1-hydroxy- [4]: 196.36 ppb; Concentration of 5-methyl furfural [4]: 27.19 ppb; Concentration of Diacetyl (2,3-Butanedione) [4]: 267.18 ppb; Concentration of Furan, 2-methyl- [4]: 7.83 ppb; Concentration of Furfural [4]: 65.56 ppb; Isovaleraldehyde (Butanal, 3-methyl-) concentration [2]: 15873.58 ppb
